Test results taken from publication PMC9486936 (ACS Chemical Biology, 2022).

Test system: NocG
Test: LC-HRMS, formation of beta-ketoacid […]
Type: biochemical, Nodularia sp. LEGE 06071
Conditions: read-out: apparent Km; variable hexanoyl-SNAC with octanoyl-SNAC as co-substrate

Km: 135 ± 29 µM
Structure (SMILES): CCCCCC(=O)SCCNC(C)=O [hexanoyl-SNAC]
